Source: paper PMC6136712, “Ex vivo drug sensitivity testing as a means for drug repurposing in esophageal adenocarcinoma” (PLoS ONE, 2018)
Structures can show the parent of a compound that is named as a salt.

Experiments:
Format in all cases: cell-based, human
[1] = test system: normal esophageal epithelium cell line EACN42; experiment: FDA library drug sensitivity testing (CellTiter-Glo, 72 h), normal control cells; parameters: key to DSS: modified drug sensitivity score (DSSmod) from dose-response curve fit; conditions: 72 h, EACN42 normal esophageal cells; for EC50: cell viability (ATP), max test concentration 10μM; for DSS: drug sensitivity score
Description: The normal esophageal epithelium cell line EACN42 was established in the Capobianco laboratory. The cell lines was derived from human normal epithelium and immortalized using HPV E6-E7.
(§1) Drug sensitivity testing (DST) was performed as described previously. […] Individual drugs were dissolved in 100% DMSO and tested in duplicates starting at a maximal test concentration of 10μM then over a 20,000-fold concentration range to generate dose response curves. Wells with assay buffer containing DMSO served as negative controls. 1000 exponentially growing cells were seeded per well in 384-well micro-titer plates and incubated in the presence of compounds in a humidified environment at 37°C and 5% CO2. After 72 hours of treatment, cell viability was assessed by measuring ATP levels via bioluminescence (CellTiter-Glo, Promega) according to manufactures recommendations. Interpretation of curve parameters was performed according to the modified drug sensitivity scoring (DSSmod) function developed by Swords et al. […] Given in this way, the sDSSmod incorporated information on each drug’s potency, efficacy, effect range and therapeutic index, making it possible to prioritize compounds over multiple parameters using a single numerical metric. […] All calculations and scoring routines are implemented in MatLab and additional curve fitting and statistical analyses are performed in GraphPad prism.

EAC42 cells = experiment: FDA library drug sensitivity testing (CellTiter-Glo, 72 h); conditions: EAC42; sDSSmod = DSSmod (patient cells) - DSSmod (normal cells)
Description: (§2) OE33, OE19 and SKGT2 human esophageal adenocarcinoma cell lines were obtained from the European Collection of Cell Culture ([…]). Flo1, EAC42 and EAC47 cells were established in the Capobianco Laboratory. EAC42 and EAC47 human esophageal adenocarcinoma cell lines are derived from patients undergoing surgery at the Miller School of Medicine, University of Miami. The Capobianco laboratory obtained written informed consent from all patients and approval from the Institutional Research Ethics Committee.
as §1

EAC47 cells = experiment: as above; conditions: EAC47; sDSSmod = DSSmod (patient cells) - DSSmod (normal cells)
Description: as §2, §1

OE19 cells = experiment: as above; conditions: sDSSmod = DSSmod (patient cells) - DSSmod (normal cells)
Description: as §2, §1

OE33 cells = experiment: as above; conditions: OE33; sDSSmod = DSSmod (patient cells) - DSSmod (normal cells)
Description: as §2, §1

SK-GT2 cells = experiment: as above; conditions: SK-GT2; sDSSmod = DSSmod (patient cells) - DSSmod (normal cells)
Description: as §2, §1

Molecule	EC50 ([1]; Homo sapiens) [nM]	DSS [1]	sDSSmod (OE33 cells)	also measured
CN(Cc1cnc2nc(N)nc(N)c2n1)c1ccc(C(=O)N[C@@H](CCC(=O)O)C(=O)O)cc1 [Abitrexate, Methotrexate]	40	21.14	16.69	sDSSmod (EAC42 cells): 31.2825; sDSSmod (EAC47 cells): 35.78; sDSSmod (OE19 cells): -21.1435
O=c1[nH]cc(F)c(=O)[nH]1 [Adrucil]	920	4.47	10.56	–
Nc1ncn([C@@H]2O[C@H](CO)[C@@H](O)[C@H]2O)c(=O)n1 [Azacitidine]	–	0	23.96	–
Nc1nc(O)c2[nH]nnc2n1 [Azaguanine-8]	–	2.04	8.322	sDSSmod (EAC42 cells): 6.077
Cn1cnc([N+](=O)[O-])c1Sc1ncnc2nc[nH]c12 [Azathioprine]	–	0.02	–	sDSSmod (EAC42 cells): 6.181; sDSSmod (EAC47 cells): 7.783; sDSSmod (SK-GT2 cells): 5.733
COc1cc2nccc(Oc3ccc(NC(=O)C4(C(=O)Nc5ccc(F)cc5)CC4)cc3)c2cc1OC [Cabozantinib]	–	0	19.55	–
CCCCCCNC(=O)n1cc(F)c(=O)[nH]c1=O [Carmofur]	710	4.76	12.42	–
Nc1nc(Cl)nc2c1ncn2[C@H]1C[C@H](O)[C@@H](CO)O1 [Cladribine]	–	0.13	–	sDSSmod (EAC42 cells): 7.959; sDSSmod (EAC47 cells): 5.947
CC(C)c1nc(CN(C)C(=O)N[C@@H](CCN2CCOCC2)C(=O)N[C@H](CC[C@H](Cc2ccccc2)NC(=O)OCc2cncs2)Cc2ccccc2)cs1 [Cobicistat]	–	0	–	sDSSmod (SK-GT2 cells): 7.685
C[C@@H](Oc1cc(-c2cnn(C3CCNCC3)c2)cnc1N)c1c(Cl)ccc(F)c1Cl [Crizotinib]	8030	–	22.74	–
Nc1ccn([C@@H]2O[C@H](CO)[C@@H](O)[C@@H]2O)c(=O)n1 [Cytarabine]	> 10000	1.34	6.525	–
C[C@H](NC(=O)Cc1cc(F)cc(F)c1)C(=O)N[C@H](C(=O)OC(C)(C)C)c1ccccc1 [DAPT]	–	0	–	sDSSmod (SK-GT2 cells): 13.54
C#Cc1cccc(Nc2ncnc3cc(OCCOC)c(OCCO)cc23)c1.Cl [Desmethyl Erlotinib]	–	3.34	8.648	sDSSmod (SK-GT2 cells): 11.77
O=c1oc2c(O)c(O)cc3c(=O)oc4c(O)c(O)cc1c4c23 [Ellagic acid]	–	0	7.542	–
COc1cccc2c1C(=O)c1c(O)c3c(c(O)c1C2=O)C[C@@](O)(C(=O)CO)C[C@@H]3O[C@H]1C[C@H](N)[C@@H](O)[C@H](C)O1 [Epirubicin Hydrochloride]	1200	18.98	6.778	sDSSmod (OE19 cells): -11.4055; sDSSmod (SK-GT2 cells): -9.535
COc1cc([C@@H]2c3cc4c(cc3[C@@H](O[C@@H]3O[C@@H]5CO[C@@H](C)O[C@H]5[C@H](O)[C@H]3O)[C@H]3COC(=O)[C@H]23)OCO4)cc(OC)c1O [Etoposide]	> 10000	4.68	6.55	sDSSmod (EAC42 cells): 5.049
CO[C@H]1C[C@@H]2CC[C@@H](C)[C@@](O)(O2)C(=O)C(=O)N2CCCC[C@H]2C(=O)O[C@H]([C@H](C)C[C@@H]2CC[C@@H](OCCO)[C@H](OC)C2)CC(=O)[C@H](C)/C=C(\C)[C@@H](O)[C@@H](OC)C(=O)[C@H](C)C[C@H](C)/C=C/C=C/C=C/1C [Everolimus]	9000	7.57	-5.493	sDSSmod (EAC47 cells): -5.697; sDSSmod (SK-GT2 cells): -5.054
O=c1[nH]c(=O)n([C@H]2C[C@H](O)[C@@H](CO)O2)cc1F [Floxuridine]	830	4.9	13.67	sDSSmod (EAC42 cells): 40.61; sDSSmod (EAC47 cells): 35.54
CNC(=O)CN(CCN(CCN(CC(=O)[O-])CC(=O)NC)CC(=O)[O-])CC(=O)[O-].[Gd+3] [Gadodiamide]	–	0	29.62	–
Nc1ccn([C@@H]2O[C@H](CO)[C@@H](O)C2(F)F)c(=O)n1 [Gemzar]	–	16.2	11.79	EC50 [1]: 770 nM; sDSSmod (EAC42 cells): 17.37; sDSSmod (EAC47 cells): 10.03; sDSSmod (OE19 cells): -11.949
O=c1c(-c2ccc(O)cc2)coc2cc(O)cc(O)c12 [Genistein]	> 10000	0.04	5.079	sDSSmod (SK-GT2 cells): 5.117
C=CC(=O)N1CCC[C@@H](n2nc(-c3ccc(Oc4ccccc4)cc3)c3c(N)ncnc32)C1 [Ibrutinib]	–	0	–	sDSSmod (OE19 cells): 31.18; sDSSmod (SK-GT2 cells): 39.31

Molecule	EC50 ([1]; Homo sapiens) [nM]	DSS [1]	sDSSmod (OE33 cells)	also measured
CC(=O)[C@]1(O)Cc2c(O)c3c(c(O)c2[C@@H](O[C@H]2C[C@H](N)[C@H](O)[C@H](C)O2)C1)C(=O)c1ccccc1C3=O [Idarubicin HCl]	710	26.1	15.06	sDSSmod (EAC42 cells): 6.506; sDSSmod (OE19 cells): -22.4296; sDSSmod (SK-GT2 cells): -17.1644
NS(=O)(=O)OC[C@@H]1C[C@@H](n2ccc3c(N[C@H]4CCc5ccccc54)ncnc32)C[C@@H]1O [MLN-4924]	> 10000	0.51	–	sDSSmod (EAC42 cells): 17.05; sDSSmod (EAC47 cells): 10.87
S=c1[nH]cnc2nc[nH]c12 [Mercaptopurine]	> 10000	0.05	–	sDSSmod (EAC42 cells): 10.48; sDSSmod (EAC47 cells): 10.9
O=S(=O)(O)CCS [Mesna]	–	0	–	sDSSmod (SK-GT2 cells): 8.021
Nc1nc2[nH]cc(CCc3ccc(C(=O)N[C@@H](CCC(=O)O)C(=O)O)cc3)c2c(=O)[nH]1 [Pemetrexed]	60	16.15	25.32	sDSSmod (EAC42 cells): 14.62; sDSSmod (EAC47 cells): 14.75; sDSSmod (OE19 cells): -15.3102
COc1ccccc1OCC(O)CN1CCN(CC(=O)Nc2c(C)cccc2C)CC1 (stereo not shown) [Ranolazine]	–	0	25.89	–
Nc1nc2nc[nH]c2c(=S)[nH]1 [Thioguanine]	3160	4.62	42.58	sDSSmod (EAC42 cells): 9.961; sDSSmod (EAC47 cells): 8.364; sDSSmod (SK-GT2 cells): 6.838
CCCCNC(=O)NS(=O)(=O)c1ccc(C)cc1 [Tolbutamide]	60	0	–	–
Cc1cccc(N(C)C(=S)Oc2ccc3ccccc3c2)c1 [Tolnaftate]	–	0	–	–
CN(C)CCOc1ccc(/C(=C(/CCCl)c2ccccc2)c2ccccc2)cc1 [Toremifene Citrate]	–	0	23.6335	–
CC1=C(/C=C/C(C)=C/C=C/C(C)=C/C(=O)O)C(C)(C)CCC1 [Tretinoin]	–	0	–	–
CC1(C)O[C@@H]2C[C@H]3[C@@H]4CCC5=CC(=O)C=C[C@]5(C)[C@@]4(F)[C@@H](O)C[C@]3(C)[C@]2(C(=O)CO)O1 [Triamcinolone Acetonide]	–	0	–	–
CC(C)C[C@H](NC(=O)[C@@H](O)[C@H](N)Cc1ccccc1)C(=O)O [Ubenimex]	–	0	–	–
CCCC(CCC)C(=O)O [Valproic acid sodium salt]	2000	0	–	–
COc1cc2c(Nc3ccc(Br)cc3F)ncnc2cc1OCC1CCN(C)CC1 [Vandetanib]	4460	0.13	8.255	sDSSmod (OE19 cells): 7.027; sDSSmod (SK-GT2 cells): 7.721
CCCS(=O)(=O)Nc1ccc(F)c(C(=O)c2c[nH]c3ncc(-c4ccc(Cl)cc4)cc23)c1F [Vemurafenib]	50	0	–	–
CC[C@]1(O)C[C@@H]2CN(CCc3c([nH]c4ccccc34)[C@@](C(=O)OC)(c3cc4c(cc3OC)N(C)[C@H]3[C@@](O)(C(=O)OC)[C@H](OC(C)=O)[C@]5(CC)C=CCN6CC[C@]43[C@@H]65)C2)C1 [Vinblastine]	> 10000	1.63	–	–
CCOC(=O)C1=C[C@]2(CC)CCCN3CCc4c(n1c1ccccc41)[C@@H]32 [Vinpocetine]	–	0	–	–
CS(=O)(=O)c1ccc(C(=O)Nc2ccc(Cl)c(-c3ccccn3)c2)c(Cl)c1 [Vismodegib]	–	0	–	–
CC(c1cc2ccccc2s1)N(O)C(N)=O (stereo not shown) [Zileuton]	–	0	–	–
Bacitracin zinc	–	0	17.07	–
Maraviroc	–	0	–	treatment response in words [1]: low or no activity
